Earlier results as cited in patent publication US20030100493A1, “Sublingual use of inhibitors in the biosynthesis of cholesterol” (priority 2001, published 2003).

Columns and labels:
[1] = sublingual; coronary patient
[2] = in vivo
[3] = test system: cholesterol synthesis; settings: compared with the other statins

Row | SMILES | passage of the blood brain barrier [2] | other results
1 | O=[N+]([O-])OCC(CO[N+](=O)[O-])O[N+](=O)[O-] [Nitroglycerin] |  | duration of effect (short lasting effect) [1]: five to ten
2 | CC(C)n1c(/C=C/C(O)CC(O)CC(=O)O)c(-c2ccc(F)cc2)c2ccccc21 (stereo not shown) [Fluvastatin] | do not pass the blood brain barrier | 
3 | CC(C)c1nc(N(C)S(C)(=O)=O)nc(-c2ccc(F)cc2)c1/C=C/[C@@H](O)C[C@@H](O)CC(=O)O [Rosuvastatin] |  | potency as an inhibitor of cholesterol synthesis [3]: significantly higher potency
4 | CC[C@H](C)C(=O)O[C@H]1C[C@H](O)C=C2C=C[C@H](C)[C@H](CC[C@@H](O)C[C@@H](O)CC(=O)O)[C@H]21 [Pravastatin] | do not pass the blood brain barrier | 
